Data reported in patent US20190117574A1, “SURFACE-MODIFIED MICROSPHERE COMPOSITION, APPLICATION OF THE SAME, AND METHOD OF PREPARING THE SAME” (INSTITUTE OF NUCLEAR ENERGY RESEARCH, ATOMIC ENERGY …, priority 2017, published 2019).

Test system: mice with FCA-induced arthritis
Assay: Treatment of mice with FCA-induced arthritis: ankle joint diameter
Type: in vivo, mice (C57BL/6)
Conditions: 10 mg/kg/ml, subdermal injection around right tibiotarsal joint on day 21 after FCA, FIG. 8
Protocol: Animal Model Created with Arthritis Induced by Freund's Complete Adjuvant (FCA) 24 male mice (C57BL/6, purchased from the National Laboratory Animal Center, Taipei, Taiwan) weighing 20-25 g (8 weeks old) are provided. The mice are each given a subdermal injection of 0.1 ml of FCA at the tibiotarsal joint of the right hind leg and 0.05 ml of FCA on the subplantar side of the right hind paw to induce the development of arthritis. Afterward, thermal images are taken of the mice with a thermal imaging camera on day 0, day 3, and day 14 after injected with FCA, respectively. The diameters of ankle joints of left and right hind legs of the mice are measured with a vernier caliper are surveyed and recorded for 2 or 3 days. The mice with FCA-induced arthritis are administered with a neutrophil elastase 680 FAST probe through trail veins on day 21 and observed with IVIS (non-invasion in vivo imaging system) to confirm whether neutrophil elastase is produced at the location where FCA is injected.
The animal model created with FCA-induced arthritis is described above. 24 mice which conform to the animal model created with FCA-induced arthritis are provided. […]
Upon completion of the subdermal injection of the reagents into the four groups of mice, the diameters of left and right ankle joints and body weight of the mice are measured with a vernier caliper and recorded for 2 or 3 days.

With `O=C(O)Cc1ccccc1Nc1c(Cl)cccc1Cl` [free diclofenac sodium, diclofenac sodium] the “reduction of swelling of ankles (ankle joint diameter) compared with saline” value was “more effective than saline in reducing the swelling of the mice's ankles”.
